Test results: patent publication US8080668B2, “Thiazoles derivatives as AMPK activator” (Dr. Reddy's Laboratories Limited, priority 2005, dated 2011)

What was measured:
AMPK [1] = experiment: AMPK activation potential, cell based ELISA with p-AMPK specific antibody, Hep G2 hepatoma liver cells; settings: 10 μM compound, 24 hours; normalized to metformin at 2 mM = 100%; HepG2 cells
Method: (§1) The AMPK activation potential percentages in this specification are calculated with respect to the already known AMPK activator metformin. The percentages are obtained by normalizing the values obtained at concentrations in the range of 2 μM to 10 μM with that of metformin by considering the values obtained for metformin at 2 mM concentrations as 100%. However, the AMPK activation potential percentages can also be calculated with respect to other known AMPK activators also.
(§2) AMPK activation potential of the compounds of formula (I) was evaluated using a cell based ELISA approach. L6 muscle skeletal muscle and Hep G2 hepatoma liver cells were cultured for 48 hours prior to drug addition at various concentrations. Twenty four hours later, the cells were fixed and the ELISA plate developed following standard protocol using p-AMPK specific antibody.
(§3) Various cell lines such as HepG2 and L6 were revived from glycerol stocks (ATCC). The cells were maintained in a T 75 culture flask-containing medium (DMEM +10% fetal calf serum). On reaching a confluence of 70% to 80%, the cells were seeded in a 96 well plate at a density of 10×10^3 cells per well in DMEM +10% FCS medium. The plates were then incubated at 37° C. with 5% CO2 for 48 hours. Various concentrations of drugs were prepared in DMSO and diluted to required concentration with the medium and incubated at 37° C. with 5% CO2 for 24 hours. Cells were fixed with 4% formaldehyde in PBS for 30 minutes at 25-35° C. and washed three times with PBS containing 0.1% Triton X-100. Endogenous peroxidase was quenched with 0.6% H2O2 in PBS-T for 30 minutes and washed three times in PBS-T. The cells were then blocked with 10% FCS in PBS-T for 1hour. The cells were incubated for 8-12 hours with various concentrations of primary antibody in PBS-T containing 5% BSA at 4° C., followed by washing three times with PBS-T for 5 minutes and incubating with a secondary antibody (HRP conjugated 1:500 in PBS-T with 5% BSA for 1 hour at 25-35° C. The cells were washed three times with PBS-T for 5 minutes and twice with PBS and incubated with 100 μl TMB/H2O2 color developing solution for 15 minutes. The reaction was stopped with 50 μl of 1M H2SO4. The plate was then read at 460 nm using ELISA plate reader.
(§4) AMPK activation percentages for various compounds are given in the table below (AMPK activation potential percentages are obtained by normalizing the values obtained at 10 μM concentration with that of metformin by considering the values obtained for metformin at 2 mM concentrations as 100%).

AMPK [2] = experiment: AMPK activation potential, cell based ELISA with p-AMPK specific antibody, L6 skeletal muscle cells; settings: 10 μM compound, 24 hours, normalized to metformin at 2 mM = 100%
Method: as §1, §2, §3, §4

SMILES	melting point [°C]	AMPK % activation (at 10 μM) HepG-2 hepatoma liver cells (AMPK [1]) [%]	AMPK % activation (at 10 μM) L6 skeletal muscle cells (AMPK [2]) [%]
O=C(O)Cc1csc(Nc2ccc(F)cc2)n1 [Example 1-a, [2-(4-Fluoro-phenylamino)-thiazol-4-yl]-acetic acid]		97.9	81
O=C(O)Cc1csc(Nc2ccc(Cl)cc2)n1 [Example 1-b, [2-(4-Chloro-phenylamino)-thiazol-4-yl]-acetic acid]		87.11	102.63
Cc1ccc(Nc2nc(CC(=O)O)cs2)cc1 [Example 1-d, (2-p-Tolylamino-thiazol-4-yl)-acetic acid]		97.11	99.55
O=C(O)Cc1csc(Nc2ccc(OC(F)(F)F)cc2)n1 [Example 1-e, [2-(4-Trifluoromethoxy-phenylamino)-thiazol-4-yl]-acetic acid]		100.29	94.09
O=C(O)Cc1csc(Nc2ccc(OCc3ccccc3)cc2)n1 [Example 1-f, [2-(4-Benzyloxy-phenylamino)-thiazol-4-yl]-acetic acid]	116 to 118	87.76	88.04
CCCCc1ccc(Nc2nc(CC(=O)O)cs2)cc1 [Example 1-p, [2-(4-Butyl-phenylamino)-thiazol-4-yl]-acetic acid]		75.77	102.26
O=C(O)Cc1csc(Nc2ccc(O)cc2)n1 [Example 1-s, [2-(4-Hydroxy-phenylamino)-thiazol-4-yl]-acetic acid]		86.08	92.35
O=C(O)c1csc(Nc2ccc(Cl)cc2)n1 [Example 2-a, 2-(4-Chloro-phenylamino)-thiazole-4-carboxylic acid]		97.26	94.90
O=C(O)c1csc(Nc2ccc(-c3csc(-c4ccc(C(F)(F)F)cc4)n3)cc2)n1 [Example 2-d, 2-{4-[2-(4-Trifluoromethyl-phenyl)-thiazol-4-yl]-phenylamino}-thiazole-4-carboxylic acid]		83.89	109.70
O=C(O)CCc1csc(Nc2ccc(C(F)(F)F)cc2)n1 [Example 3-e, 3-[2-(4-Trifluoromethyl-phenylamino)-thiazol-4-yl]-propionic acid]		110.47	94.72

Further lines, with some results ahead:

melting point [°C]	SMILES	AMPK % activation (at 10 μM) HepG-2 hepatoma liver cells (AMPK [1]) [%]	AMPK % activation (at 10 μM) L6 skeletal muscle cells (AMPK [2]) [%]
198 to 199	O=C(O)Cc1csc(Nc2ccc(N3CCOCC3)cc2)n1 [Example 1-i, [2-(4-Morpholin-4-yl-phenylamino)-thiazol-4-yl]-acetic acid]	69.71	109.09
191 to 192	O=C(O)Cc1csc(Nc2ccc(Sc3ccc(Cl)cc3)cc2)n1 [Example 1-j, {2-[4-(4-Chloro-phenylsulfanyl)-phenylamino]-thiazol-4-yl}-acetic acid]	97.56	97.09
192 to 193	O=C(O)Cc1csc(Nc2ccc(Oc3ccc(Cl)cc3)cc2)n1 [Example 1-k, {2-[4-(4-Chloro-phenoxy)-phenylamino]-thiazol-4-yl}-acetic acid]	97.56	96.19
171 to 174	O=C(O)Cc1csc(Nc2ccc(-c3csc(-c4ccc(C(F)(F)F)cc4)n3)cc2)n1 [Example 1-l, (2-{4-[2-(4-Trifluoromethyl-phenyl)-thiazol-4-yl]-phenylamino}-thiazol-4-yl)-acetic acid]	85.27	104.37
148 to 150	O=C(O)Cc1csc(Nc2ccc(-c3csc(-c4ccccc4)n3)cc2)n1 [Example 1-m, {2-[4-(2-Phenyl-thiazol-4-yl)-phenylamino]-thiazol-4-yl}-acetic acid]		
153 to 156	Cc1nc(-c2ccc(Nc3nc(CC(=O)O)cs3)cc2)cs1 [Example 1-n, {2-[4-(2-Methyl-thiazol-4-yl)-phenylamino]-thiazol-4-yl}-acetic acid]	98.42	83.62
158 to 159	O=C(O)Cc1csc(Nc2ccc(-c3ccccc3)cc2)n1 [Example 1-o, [2-(Biphenyl-4-ylamino)-thiazol-4-yl]-acetic acid]		
290 to 292	Cc1nc(-c2ccc(Nc3nc(C(=O)O)cs3)cc2)cs1 [Example 2-b, 2-[4-(2-Methyl-thiazol-4-yl)-phenylamino]-thiazole-4-carboxylic acid]		
283 to 286	O=C(O)c1csc(Nc2ccc(-c3csc(-c4ccccc4)n3)cc2)n1 [Example 2-c, 2-[4-(2-Phenyl-thiazol-4-yl)-phenylamino]-thiazole-4-carboxylic acid]	96.35	102.19
